pIC50: −log10 of the molar value. Blank lines part the entries; values can stand above or below the compound they belong to.
Biological target: T1, MAGL (Homo sapiens, UniProt Q99685)
T1 sequence (Q99685 1-303): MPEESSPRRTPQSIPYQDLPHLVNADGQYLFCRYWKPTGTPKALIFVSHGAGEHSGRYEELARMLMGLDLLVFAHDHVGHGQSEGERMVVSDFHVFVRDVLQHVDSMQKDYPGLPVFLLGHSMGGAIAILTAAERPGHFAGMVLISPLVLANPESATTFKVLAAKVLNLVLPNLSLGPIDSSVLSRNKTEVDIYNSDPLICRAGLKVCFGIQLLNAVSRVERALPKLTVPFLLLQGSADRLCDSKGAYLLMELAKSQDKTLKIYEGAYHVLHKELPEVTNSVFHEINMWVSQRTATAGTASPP
Assay: 2-AG assay: MAGL inhibitory activity by hydrolysis of 2-arachidonoylglycerol to arachidonic acid, followed by mass spectrometry
Type: biochemical
Conditions: for pIC50: 15 min preincubation, 30 min reaction at RT, 8 μM 2-arachidonoylglycerol

Structure (SMILES): O=C1COCC2(CN(C(=O)N3CC4(CN(Cc5ccc(C(F)(F)F)cc5F)C4)C3)C2)N1 [Example 372, 2-[6-[2-fluoro-4-(trifluoromethyl)benzyl]-2,6-diazaspiro[3.3]heptane-2-carbonyl]-8-oxa-2,5-diazaspiro[3.5]nonan-6-one]
pIC50: 7.81

Structure (SMILES): O=C1CCCC2(CN(C(=O)N3CC4(CC(Cc5cccc(S(=O)(=O)C(F)(F)F)c5)C4)C3)C2)N1 [Example 186, 2-[6-[[3-(trifluoromethylsulfonyl)phenyl]methyl]-2-azaspiro[3.3]heptane-2-carbonyl]-2,5-diazaspiro[3.5]nonan-6-one]
pIC50: 7.02

Structure (SMILES): O=C1NC2(CO1)CN(C(=O)N1CC3(CC(NC4(C(F)(F)F)CC4)C3)C1)C2 [Example 65, 2-[6-[[1-(trifluoromethyl)cyclopro-pyl]amino]-2-azaspiro[3.3]heptane-2-carbonyl]-7-oxa-2,5-diazaspiro[3.4]octan-6-one]
pIC50: 8.73

Structure (SMILES): O=C1NC2(CO1)CN(C(=O)N1CC3(CC(Cc4cnc(C(F)(F)F)cn4)C3)C1)C2 [Example 5, 2-[6-[[5-(trifluoromethyl)pyrazin-2-y1]methyl]-2-azaspiro[3.3]heptane-2-carbonyl]-7-oxa-2,5-diazaspiro[3.4]octan-6-one]
pIC50: 8.94

Structure (SMILES): CS(=O)(=O)c1ccc(CC2CC3(C2)CN(C(=O)N2CC4(COCC(=O)N4)C2)C3)cc1C(F)(F)F [Example 181, 2-[6-[[4-methylsulfonyl-3-(trifluoromethyl)phenyl]methyl]-2-azaspiro[3.3]heptane-2-carbonyl]-8-oxa-2,5-diazaspiro[3.5]nonan-6-one]
pIC50: 8.84

Structure (SMILES): O=C1CCCC2(CN(C(=O)N3CC4(CC(Cc5ccc(S(=O)(=O)C6CC6)cc5)C4)C3)C2)N1 [Example 269, 2-[6-[(4-cyclopropylsulfonylphe-nyl)methyl]-2-azaspiro[3.3]heptane-2-carbonyl]-2,5-diazaspiro[3.5]nonan-6-one]
pIC50: 6.33

Structure (SMILES): CS(=O)(=O)c1ccc(CC2CCC3(C2)CN(C(=O)N2CC4(COC(=O)N4)C2)C3)cc1C(F)(F)F (stereo not shown) [Example 109, 2-[6-[4-mesyl-3-(trifluoromethyl)benzyl]-2-azaspiro[3.4]octane-2-carbonyl]-7-oxa-2,5-diazaspiro[3.4]octan-6-one]
pIC50: 9.68

Structure (SMILES): O=C1CCC2(CN(C(=O)N3CC4(CCN(Cc5ccc(C(F)(F)F)cn5)CC4)C3)C2)N1 [Example 146, 2-[7-[[5-(trifluoromethyl)-2-pyridyl]methyl]-2,7-diazaspiro[3.5]nonane-2-carbonyl]-2,5-diazaspiro[3.4]octan-6-one]
pIC50: 7.96

Structure (SMILES): O=C1COCC2(CN(C(=O)N3CC4(CC(n5cnc(C6CC6)n5)C4)C3)C2)N1 [Example 227, 2-[6-(3-cyclopropyl-1,2,4-triazol-1-yl)-2-azaspiro[3.3]heptane-2-carbonyl]-8-oxa-2,5-diazaspiro[3.5]nonan-6-one]
pIC50: 5.75

Structure (SMILES): O=C1NC2(CO1)CN(C(=O)N1CC3(CCN(Cc4cnc(C(F)(F)F)cn4)C3)C1)C2 [Example 157, 2-[7-[[5-(trifluoromethyl)pyrazin-2-yl]methyl]-2,7-diazaspiro[3.4]octane-2-carbonyl]-7-oxa-2,5-diazaspiro[3.4]octan-6-one]
pIC50: 8.01

Structure (SMILES): CS(=O)(=O)c1ccc(CC2CC3(C2)CN(C(=O)N2CC4(COCC(=O)N4)C2)C3)cc1C(F)(F)F [Example 183]
pIC50: 8.14

Structure (SMILES): O=C1NC2(CO1)CN(C(=O)N1CC3(CC(Cc4ccc(F)cc4F)C3)C1)C2 [Example 23, 2-[6-(2,4-difluorobenzyl)-2-azaspiro[3.3]heptane-2-carbonyl]-7-oxa-2,5-diazaspiro[3.4]octan-6-one]
IC50 (unit nM): < 5 nM

Next, values leading:

pIC50: 8.39
Structure (SMILES): Cn1ncc(CC2CC3(C2)CN(C(=O)N2CC4(COCC(=O)N4)C2)C3)c1C(F)(F)F [Example 368, 2-[6-[[1-methyl-5-(trifluoromethyl)pyrazol-4-yl]methyl]-2-azaspiro[3.3]heptane-2-carbonyl]-8-oxa-2,5-diazaspiro[3.5]nonan-6-one]

pIC50: 6.19
Structure (SMILES): O=C1NC2(CCO1)CN(C(=O)N1CC3(CC(Cc4cnc(C(F)(F)F)cn4)C3)C1)C2 [Example 43, 2-[6-[[5-(trifluoromethyl)pyrazin-2-yl]methyl]-2-azaspiro[3.3]heptane-2-carbonyl]-7-oxa-2,5-diazaspiro[3.5]nonan-6-one]

pIC50: 6.51
Structure (SMILES): N#Cc1cnn(CC2CC3(C2)CN(C(=O)N2CC4(CCC(=O)N4)C2)C3)c1 [Example 247, 1-[[2-(6-oxo-2,5-diazaspiro[3.4]octane-2-carbonyl)-2-azaspiro[3.3]heptan-6-yl]methyl]pyrazole-4-carbonitrile]

pIC50: 8.24
Structure (SMILES): O=C1CCC2(CN(C(=O)N3CC4(CCC(Cc5ncc(F)cc5F)CC4)C3)C2)N1 [Example 125, 2-[7-[(3,5-difluoro-2-pyridyl)methyl]-2-azaspiro[3.5]nonane-2-carbonyl]-2,5-diazaspiro[3.4]octan-6-one]

pIC50: 8.54
Structure (SMILES): Cn1nc(CC2CC3(C2)CN(C(=O)N2CC4(COCC(=O)N4)C2)C3)cc1C(F)(F)F [Example 367, 2-[6-[[1-methyl-5-(trifluoromethyl)pyrazol-3-yl]methyl]-2-azaspiro[3.3]heptane-2-carbonyl]-8-oxa-2,5-diazaspiro[3.5]nonan-6-one]

pIC50: 6.69
Structure (SMILES): O=C1CCC2(CN(C(=O)N3CC4(CN(Cc5cnc(C(F)(F)F)s5)C4)C3)C2)N1 [Example 315, 2-[6-[[2-(trifluoromethyl)thiazol-5-yl]methyl]-2,6-diazaspiro[3.3]heptane-2-carbonyl]-2,5-diazaspiro[3.4]octan-6-one]

pIC50: 8.47
Structure (SMILES): O=C1CCC2(CN(C(=O)N3CC4(CC(Cc5cn(C6CC6)nc5C(F)(F)F)C4)C3)C2)N1 [Example 324]

pIC50: 8.09
Structure (SMILES): Cc1cc(C(F)F)nn1CC1CC2(C1)CN(C(=O)N1CC3(CCC(=O)N3)C1)C2 [Example 347, 2-[6-[[3-(difluoromethyl)-5-methyl-pyrazol-1-yl]methyl]-2-azaspiro[3.3]heptane-2-carbonyl]-2,5-diazaspiro[3.4]octan-6-one]

pIC50: 7.34
Structure (SMILES): CC(C)(C)c1ncc(CN2CC3(C2)CN(C(=O)N2CC4(CCC(=O)N4)C2)C3)s1 [Example 331, 2-[6-[(2-tert-butylthiazol-5-yl)methyl]-2,6-diazaspiro[3.3]heptane-2-carbonyl]-2,5-diazaspiro[3.4]octan-6-one]

pIC50: 5.74
Structure (SMILES): Cc1nc(C(F)(F)F)c(CN2CC3(C2)CN(C(=O)N2CC4(CCC(=O)N4)C2)C3)s1 [Example 343, 2-[6-[[2-methyl-4-(trifluoromethyl)thiazol-5-yl]methyl]-2,6-diazaspiro[3.4]heptane-2-carbonyl]-2,5-diazaspiro[3.4]octan-6-one]

pIC50: 9.36
Structure (SMILES): O=C1NC2(CO1)CN(C(=O)N1CC3(CC(Cn4cc(C(F)(F)F)cn4)C3)C1)C2 [Example 53, 2-[6-[[4-(trifluoromethyl)pyrazol-1-y1]methyl]-2-azaspiro[3.3]heptane-2-carbonyl]-7-oxa-2,5-diazaspiro[3.4]octan-6-one]

pIC50: 7.44
Structure (SMILES): O=C1CCC2(CN(C(=O)N3CC4(CC(Cn5cnc(C(F)(F)F)c5)C4)C3)C2)N1 [Example 59, 2-[6-[[4-(trifluoromethyl)imidazol-1-yl]methyl]-2-azaspiro[3.3]heptane-2-carbonyl]-2,5-diazaspiro[3.4]octan-6-one]

pIC50: 9.32
Structure (SMILES): N=S(=O)(c1ccc(CC2CC3(C2)CN(C(=O)N2CC4(CCC(=O)N4)C2)C3)c(F)c1)C(F)(F)F (stereo not shown) [Example 265, 2-[6-[[2-fluoro-4-(trifluoromethylsulfoni-midoyl)phenyl]methyl]-2-azaspiro[3.3]heptane-2-carbonyl]-2,5-diazaspiro[3.5]octan-6-one]

Source: US20240383904A1, “HETEROCYCLIC COMPOUNDS” (Hoffmann-La Roche Inc., priority 2021, published 2024)
